Data reported in publication PMC10388327, “Dual Piperidine-Based Histamine H3 and Sigma-1 Receptor Ligands in the Treatment of Nociceptive and Neuropathic Pain” (Journal of Medicinal Chemistry, 2023).
Structures can show the parent of a compound that is named as a salt.

Columns and labels:
[1] = target: T1, human histamine H2 receptor (hH2R) (Homo sapiens, UniProt P25021); assay: hH2R radioligand binding ([3H]UR-DE257); settings: HEK293T cells; n = 3, triplicate
T1 construct: SP (signal peptide) (N); FLAG (N); expressed in transfected cells
T1 sequence (P25021 whole entry): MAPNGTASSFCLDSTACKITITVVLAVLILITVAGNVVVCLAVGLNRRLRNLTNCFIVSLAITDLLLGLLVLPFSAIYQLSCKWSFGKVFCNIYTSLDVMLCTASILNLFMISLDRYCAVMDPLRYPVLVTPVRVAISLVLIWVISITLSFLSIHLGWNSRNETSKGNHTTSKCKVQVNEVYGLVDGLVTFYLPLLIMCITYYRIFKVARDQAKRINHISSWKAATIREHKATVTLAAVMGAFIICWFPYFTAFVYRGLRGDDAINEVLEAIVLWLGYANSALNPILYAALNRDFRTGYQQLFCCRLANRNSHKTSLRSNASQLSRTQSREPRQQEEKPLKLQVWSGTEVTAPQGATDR
Experimental: To check the selectivity profile of our lead structures, radioligand binding studies at other histamine receptor subtypes were carried out. […] Obtained results clearly indicate the high selectivity of the tested derivatives toward human H3R (Table 3).
Compounds (as oxalate salts) were tested in H3R in vitro binding studies using the methods described previously.[21]−[23] […] Radioligand binding experiments at the H1R, H2R, and H4R were performed as previously described in Rosier et al.[65] and Bartole et al.[66] […] Data represent mean values ± CI from three independent experiments, each performed in triplicate. The normalized competition binding curves were then fitted with a four-parameter logistic fit yielding IC50 values using the Prism 8.4.3 software (GraphPad, San Diego, CA). The Ki values were estimated from the Cheng–Prusoff equation.[69]

[2] = test system: mice; assay: motor coordination in the rotarod test; format: in vivo; settings: 15 mg/kg i.p.; 6, 18 and 24 rpm
Excerpt: The neurotoxicity of the new compounds can result in impaired motor functions of the experimental animals, which may subsequently cause false interpretation of the results of in vivo tests. Understandably, neurotoxicity is also the frequent reason for eliminating the tested compound from further studies. To minimize that risk, we investigated the influence of our lead structures on motor coordination in the rotarod test, which is the classical test used for assessing motor coordination and balance in rodents. It provides a quick and simple estimation of neuromuscular coordination. […] The time spent on the rotarod apparatus was 60 s for each control mouse.
The test was carried out on the semiautomatic rotarod apparatus (Rotarod apparatus Panlab/Harvard Apparatus, LE 8200, Spain) according to the method previously described in the literature.[85] The mice were trained for 3 days on the rod rotating at a constant speed of 18 rotations per minute (rpm). During each training session, the animals were placed on the rod for 3 min with an unlimited number of trials. On the test day (24 h after the final training trial), 30 min before the rotarod test, the mice were pretreated (i.p.) with the test compound (15 mg/kg). Then, the animals were tested on the rotarod revolving at 6, 18, and then 24 rpm. Motor impairments, defined as the inability to remain on the rotating rod for 1 min, were measured at each speed.

[3] = serum metabolic stability

With `N#Cc1ccc(-c2ccc(OCCCN3CCC(c4ccncc4)CC3)cc2)cc1` [Compound 12, 4′-(3-(4-(Pyridin-4-yl)piperidin-1-yl)propoxy)-[1,1′-biphenyl]-4-carbonitrile Oxalate] the Ki [1] was > 10 µM, the “influence on motor coordination, time on rotarod” value [2] was “slightly affected motor coordination, but the effect was not statistically significant” and the serum stability assessment [3] was “moderately stable ligand”. It also gave a half-life at 24 h ([3]; serum (made from plasma by clotting with calcium chloride)) of 7.7 ± 1.4 h.
